In experiment [1] the test system is CPC-N (Small Cell Lung Carcinoma). As to the kind of experiment: Bliss excess, mean over the matrix (fraction); higher = more synergy. In outline: (§1)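 After 24 hours at 37°C and 5% CO2 in 1536-well plates, cells in DMEM/F12 or RPMI plus 10% FBS received two-drug dose matrices for 72 hours. Viability came from CellTiter-Glo 2.0 luminescence and was scaled as inhibition, anchored at 0 by vehicle wells and at 1 by blank wells. Combination Emax is taken as the second-highest inhibition in the matrix, and Bliss excess as the observed combination effect less EA + EB − EA·EB, with EA and EB the single-agent effects.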

Experiment [2] concerns C-33-A (Cervical Carcinoma). The experiment is described as above. The method, boiled down:
as §1

In experiment [3] the test system is NCI-H3118 (Head and Neck Carcinoma). The description is as above. The method, boiled down:
as §1

The subject of experiment [4] is MONO-MAC-6 (Acute Myeloid Leukemia). The description is as above. In outline:
as §1

Experiment [5] deals with LCLC-103H (Non-Small Cell Lung Carcinoma). The experiment is described as above. In outline:
as §1

For experiment [6], the system named is HPAF-II (Pancreatic Carcinoma). The experiment is described as above. In outline:
as §1

Experiment [7] deals with SNU-423 (Hepatocellular Carcinoma). Described as above. The method, boiled down:
as §1

A further experiment concerns NCI-H226 (Mesothelioma). The description is as above. In outline: as §1
The test system of experiment [8] is COR-L88 (Small Cell Lung Carcinoma). Described as above. In outline:
as §1

The subject of experiment [9] is LS-1034 (Colorectal Carcinoma). The description is as above. The method, boiled down: as §1
The subject of experiment [10] is MDA-MB-415 (Breast Carcinoma). The experiment is described as above. In outline: as §1
For experiment [11], the system named is IA-LM (Non-Small Cell Lung Carcinoma). The description is as above. The method, boiled down:
as §1

Experiment [12] concerns SK-CO-1 (Colorectal Carcinoma). The description is as above. In outline:
as §1

A further experiment deals with IST-MEL1 (Melanoma). The experiment is described as above. The method, boiled down: as §1
Experiment [13] has as its system CPC-N (Small Cell Lung Carcinoma). The experiment is described as follows: combination Emax (second highest fraction inhibited in the dose matrix, 72 h); higher = more inhibition; extreme values may be limits of the assay. In outline: as §1
Experiment [14] concerns LS-1034 (Colorectal Carcinoma). Described as above. In outline: as §1
For experiment [15], the system named is MDA-MB-415 (Breast Carcinoma). Described as above. The method, boiled down: as §1
The subject of experiment [16] is SCC-4 (Oral Cavity Carcinoma). The description is as above. In outline: as §1
The subject of experiment [17] is MS-1 (Small Cell Lung Carcinoma). The description is as above. The method, boiled down: as §1
Experiment [18] has as its system ZR-75-30 (Breast Carcinoma). Described as above. In outline: as §1
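Wherever Bliss excess, mean over the matrix is given: after 72 h of two-drug dosing.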

Consider `C[C@@H](Nc1cc(F)cc(F)c1)c1cc(C(=O)N(C)C)cc2c(=O)cc(N3CCOCC3)oc12` [AZD8186] + CC(=O)c1c(C)c2cnc(Nc3ccc(N4CCNCC4)cn3)nc2n(C2CCCC2)c1=O [Palbociclib] (first compound max 10 µM, 7x7, partner max 10 µM), for which the Bliss excess in [1] was -0.0198; in [2], -0.0435; in [3], 0.0284; in experiment [4] it was 0.0726; in [5], -0.0038; in [6] it was 0.0384. Moreover, the Bliss excess was 0.0188 in experiment [7]; -0.0662 with NCI-H226 (Mesothelioma); 0.0025 in experiment [8]; 0.0015 in experiment [9]; -0.0443 in [10]; 0.0122 in experiment [11]. Also, the Bliss excess in [12] worked out at 0.0163; with IST-MEL1 (Melanoma), 0.165. Also, the “combination Emax” value in [13] worked out at 0.262; in [14], 0.438; in [15], 0.794; in experiment [16], 0.327; in experiment [17] it was 0.295; in experiment [18], 0.336.

As for `C[C@@H](Oc1cc(-c2cnn(C3CCNCC3)c2)cnc1N)c1c(Cl)ccc(F)c1Cl` [Crizotinib] + CC1=C(C(=CC=C1)Cl)NC(=O)C2=CN=C(S2)NC3=CC(=NC(=N3)C)N4CCN(CC4)CCO [Dasatinib] (first compound max 10 µM, 7x7, partner max 2 µM), the Bliss excess is -0.0989 in experiment [1]; -0.02 in [2]; 0.0187 in [3]; 0.014 in experiment [4]; 0.01 in [5]; 0.0578 in experiment [6]. Moreover, the Bliss excess in [7] was -0.0038; with NCI-H226 (Mesothelioma), -0.0295; in experiment [8] it was -0.0039; in experiment [9], -0.0512; in [10], -0.0332; in experiment [11], -0.0154. Moreover, the values for the Bliss excess (in [12]; with IST-MEL1 (Melanoma)) were 0.0048 and 0.0781, respectively. Further, the “combination Emax” value worked out at 0.584 in [13]; 0.835 in experiment [14]; 0.323 in [15]; 0.913 in [16]; 0.686 in experiment [17]; 0.036 in [18].

As for `C[C@@H](Oc1cc(-c2cnn(C3CCNCC3)c2)cnc1N)c1c(Cl)ccc(F)c1Cl` [Crizotinib] + Cn1cnc2c(F)c(Nc3ccc(Br)cc3Cl)c(C(=O)NOCCO)cc21 [Selumetinib] (first compound max 10 µM, 7x7, partner max 10 µM), the Bliss excess in experiment [1] was -0.0663; in [2], -0.0274; in experiment [3], -0.0222; in experiment [4] it was 0.023; in [5], -0.0221; in experiment [6] it was 0.0008. Moreover, the Bliss excess was -0.0459 in [7]; -0.0387 in the experiment on NCI-H226 (Mesothelioma); -0.0464 in [8]; -0.0843 in experiment [9]; -0.0114 in experiment [10]; -0.0463 in experiment [11]. Besides, the Bliss excess is -0.043 in experiment [12] and 0.0273 in the experiment with IST-MEL1 (Melanoma). The “combination Emax” value amounted to 0.62 in experiment [13]; 0.79 in experiment [14]; 0.275 in experiment [15]; 0.496 in experiment [16]; 0.791 in experiment [17]; 0.0695 in experiment [18].

For `CS(=O)(=O)CCNCc1ccc(-c2ccc3ncnc(Nc4ccc(OCc5cccc(F)c5)c(Cl)c4)c3c2)o1` [Lapatinib] + Cn1cnc2c(F)c(Nc3ccc(Br)cc3Cl)c(C(=O)NOCCO)cc21 [Selumetinib] (first compound max 10 µM, 7x7, partner max 10 µM), the Bliss excess in experiment [1] was -0.0085; in [2], 0.0282; in experiment [3], 0.0206; in experiment [4], 0.0017; in experiment [5] it was -0.0744; in experiment [6] it was 0.109. The Bliss excess is -0.0083 in experiment [7]; -0.0542 in the experiment with NCI-H226 (Mesothelioma); -0.0301 in [8]; -0.0089 in experiment [9]; -0.0575 in experiment [10]; -0.0659 in experiment [11]. Besides, the figures for the Bliss excess (in [12]; in the experiment on IST-MEL1 (Melanoma)) were 0.0335 and 0.0279, respectively. Also, the “combination Emax” value was 0.251 in experiment [13]; 0.727 in [14]; 0.389 in [15]; 0.557 in experiment [16]; 0.489 in experiment [17]; 0.807 in [18].

`CS(=O)(=O)CCNCc1ccc(-c2ccc3ncnc(Nc4ccc(OCc5cccc(F)c5)c(Cl)c4)c3c2)o1` [Lapatinib] + NC1(c2ccc(-c3nc4ccn5c(=O)[nH]nc5c4cc3-c3ccccc3)cc2)CCC1 [MK-2206] (first compound max 10 µM, 7x7, partner max 10 µM): the Bliss excess is -0.0202 in experiment [1]; 0.0295 in [2]; 0.0618 in [3]; 0.0302 in experiment [4]; -0.0428 in [5]; 0.0089 in [6]. In addition, the Bliss excess in experiment [7] is 0.0232; in the experiment on NCI-H226 (Mesothelioma), -0.0287; in experiment [8] it was 0.0151; in experiment [9], 0.0301; in experiment [10] it was 0.0306; in experiment [11] it was -0.0179. The figures for the Bliss excess (in [12]; with IST-MEL1 (Melanoma)) were 0.0289 and 0.0095, respectively. Besides, the “combination Emax” value in [13] was found to be 0.847; in experiment [14], 0.919; in experiment [15] it was 0.972; in experiment [16], 0.719; in [17] it was 0.926; in experiment [18], 0.912.

For the molecule `O=C(c1cc(Cc2n[nH]c(=O)c3ccccc23)ccc1F)N1CCN(C(=O)C2CC2)CC1` [Olaparib] + CC1(C)CCC(CN2CCN(c3ccc(C(=O)NS(=O)(=O)c4ccc(NCC5CCOCC5)c([N+](=O)[O-])c4)c(Oc4cnc5[nH]ccc5c4)c3)CC2)=C(c2ccc(Cl)cc2)C1 [Venetoclax] (first compound max 10 µM, 7x7, partner max 1 µM), the Bliss excess in experiment [1] is -0.0439; in experiment [2], -0.0389; in experiment [3] it was -0.028; in [4] it was 0.0368; in experiment [5] it was -0.0212; in [6] it was -0.0183. The Bliss excess in experiment [7] is -0.0472; in the experiment with NCI-H226 (Mesothelioma) it was -0.0428; in experiment [8], 0.0604; in [9], -0.0413; in experiment [10], -0.064; in experiment [11] it was -0.0339. The Bliss excess was -0.0405 in experiment [12] and 0.0186 in the experiment on IST-MEL1 (Melanoma). Moreover, the “combination Emax” value in experiment [13] came out at 0.166; in experiment [14], 0.008; in [15], 0.179; in [16] it was 0.0794; in experiment [17], 0.453; in experiment [18] it was 0.158.

Regarding `O=C(c1cc(Cc2n[nH]c(=O)c3ccccc23)ccc1F)N1CCN(C(=O)C2CC2)CC1` [Olaparib] + CN(CC[C@H](CSC1=CC=CC=C1)NC2=C(C=C(C=C2)S(=O)(=O)NC(=O)C3=CC=C(C=C3)N4CCC(CC4)[C@H](C5=CC=CC=C5C6=CC=C(C=C6)Cl)O)S(=O)(=O)C(F)(F)F)CCO [AZD4320] (first compound max 10 µM, 7x7, partner max 1 µM), the Bliss excess in experiment [1] was -0.0247; in experiment [2], 0.0014; in experiment [3], -0.0182; in [4], 0.0291; in experiment [5], -0.0339; in [6], -0.0399. For the same molecule, the Bliss excess in experiment [7] is -0.0182; with NCI-H226 (Mesothelioma), -0.047; in experiment [8] it was 0.0077; in experiment [9], -0.0388; in [10] it was -0.0718; in [11], 0.0167. For the same molecule, the Bliss excess in experiment [12] is 0.0256; in the experiment with IST-MEL1 (Melanoma) it was -0.0373. In addition, the “combination Emax” value in [13] amounted to 0.856; in experiment [14], 0.0945; in experiment [15] it was 0.553; in [16], 0.338; in experiment [17] it was 0.636; in experiment [18], 0.149.

The values above are taken from the supplement of paper PMC11061612.
